Measured values reported in patent publication US12279616B2, “Stabilization of dimpropyridaz suspensions by triethylammonium chloride” (BASF SE, priority 2019, dated 2025).

Assay: Water-solubility of dimpropyridaz
Format: physicochemical
Settings: printed as at 20° C. ... at 25° C.
Protocol: Dimpropyridaz is a pesticide that has a water-solubility at 20° C. of approximately 4-5 wt % at 25° C. The water-solubility of dimpropyridaz is comparably high and so Ostwald-ripening represents a crucial issue for Dimpropyridaz suspension concentrates.

CCN(C(=O)c1cnn(C(C)C(C)C)c1C)c1ccnnc1 (racemic) [Dimpropyridaz, 1-[1,2-dimethylpropyl]-N-ethyl-5-methyl-N-pyridazin-4-yl-1H-pyrazole-4-carboxamide]
water-solubility: 4-5 wt %
